From US10488417B2, “Compounds for use as imaging agents” (United Arab Emirates University, priority 2014, dated 2019)

Assays:
[1] = system: BE(2)-M17 human neuroblastoma cells; assay: α-synuclein-induced cytotoxicity, MTT cell viability; type: cell-based
Protocol: BE(2)-M17 human neuroblastoma cells were routinely cultured in Dulbecco's MEM/Nutrient Mix F-12 (1:1) (Gibco BRL, Rockville, Md.) containing 15% fetal bovine serum and 1% penicillin-streptomycin (P/S; 100 U/ml penicillin, […]). The cells were maintained at 37° C. in a humidified incubator with 5% CO2/95% air.
BE(2)-M17 cells suspended in DMEM medium were plated at a density of 15,000 cells (100 μL/well) in a 96-well plate. After 24 hours, the medium was replaced with 200 μL of OPTI-MEM (Gibco-USA) serum-free medium containing aged α-synuclein solutions with or without the compounds. Aged α-synuclein and compound-containing solutions were diluted in OPTI-MEM to obtain the desired concentration. Cells were then incubated at 37° C. in 5% CO2 for 48 hours. A total of 20 μL of MTT (3-(4,5-dimethylthiazol-2-yl)-2,5-diphenyltetrazolium bromide) (Sigma-Aldrich, USA) (6 mg/ml) in PBS was dispensed into each well, and the plate was incubated at 37° C. for 4.5 hours. The MTT-containing medium was carefully removed, and 100 μL of lysis buffer (15% SDS, 50% N,N-dimethylformamide, pH 4.7) was added to each well. The lysis buffer was incubated overnight at 37° C. before the absorbance values at 590 nm were determined by a microplate reader (Perkin Elmer).
BE(2)-M17 human neuroblastoma cells were treated with aged α-synuclein solutions at three different concentrations, 0.5 μM, 1 μM and 5 μM, either alone or in the presence of Gn Rb1, salvianolic acid B or dihydromyricetin.
The viability of cells treated with α-synuclein aged in the presence or absence of the Gn Rb1, salvianolic acid B or dihydromyricetin was determined by the MTT assay. Prior to the experiments, the effect of the Gn Rb1, salvianolic acid B and dihydromyricetin alone on cell viability was assessed (data not shown), employing the same non-toxic Gn Rb1, salvianolic acid B and dihydromyricetin concentrations that were later employed for the experiments with aged α-synuclein.

[2] = molecular target: T1, α-synuclein (Homo sapiens, UniProt P37840); assay: Seeding polymerization assay of α-synuclein monomers (Th-T, TEM); type: biochemical; settings: for inhibition of the seeding process / inhibition at 50 µM: 6 hours, 100 μM monomeric α-synuclein, 2 μM seeds; for inhibition at 50 µM: read-out: inhibition of the seeding process
T1 construct: GST (N, cleaved yes); made in house; host or cells: E. coli BL21
Protocol: The aggregation of monomeric α-synuclein with or without seeding was performed as described elsewhere. The seeds were prepared by fragmenting the mature α-synuclein fibrils by sonication to obtain short fibrils, which were employed as ‘seeds’. Briefly, monomeric α-synuclein at a concentration of 100 μM was seeded with 2 μM of seeds and incubated in the presence or absence of the compounds (10 μM or 50 μM) at 37° C. for 6 hours with continuous shaking. The fibrillization was monitored by Th-T binding assay as described above.
To assess the effect of salvianolic acid B, dihydromyricetin and Gn Rb1 on the seeding of α-synuclein aggregation, the compounds were added at concentrations of 10 or 50 μM to 100 μM monomeric α-synuclein containing seeds at a final concentration of 2 μM. The mixture was then incubated with continuous mixing at 37° C. for 6 hours.

[3] = molecular target: T1, α-synuclein; assay: Transmission electron microscopy of α-synuclein aged with compounds; type: biochemical; settings: 25 μM α-synuclein, 5 days, molar ratios 4:1, 2:1, 1:1
Protocol: Electron images were produced from α-synuclein aged alone or in the presence of the compounds. The samples (5 μL) were deposited on Formvar-coated 400-mesh copper grids (Agar Scientific, UK), fixed briefly with 0.5% glutaraldehyde (5 μL), negatively stained with 2% uranyl acetate (Sigma-Aldrich, USA) and examined with a Philips CM-10 TEM electron microscope.

[4] = molecular target: T1, α-synuclein; assay: α-synuclein fibrillation, Thioflavin-T (Th-T) binding assay; type: biochemical; settings: 25 μM α-synuclein; for inhibition at 50 µM: compound 50 μM
Protocol: The protein purity was estimated to be >95% using an SDS gel. Ginsenoside, Rb1, stock solutions (10 mM) were prepared in 100% DMSO, and the final amount of DMSO in the sample solutions was 1%. Samples of 25 μM α-synuclein in PBS were aged alone or with Rb1 at various molar ratios (Rb1:α-synuclein molar ratios of 4:1, 2:1 and 1:1). The samples were placed in 1.5 ml sterile polypropylene tubes, drops of mineral oil were added to prevent sample evaporation, and the tubes were then sealed with parafilm and incubated at 37° C. for 5 days with continuous shaking at 800 rpm in a Thermomixer (Eppendorf). Samples were collected at the indicated time points, and a Thioflavin-T assay was performed immediately at each time point, while the rest of the samples were stored at −80° C. until needed for further analyses.
α-Synuclein fibril formation was monitored by Th-T binding assay. Th-T is a fluorescent dye that interacts with fibrils containing a β-sheet structure. A total of 10 μL of each sample was diluted in 40 μL of Th-T in PBS. Fluorescence was then measured in a 384-well, untreated black micro-well plate (Nunc, Denmark) using a microplate reader (Victor X3 2030, Perkin Elmer) with the excitation and emission wavelengths set at 450 and 486 nm, respectively. To allow for background fluorescence, the fluorescence intensity of a blank PBS solution was subtracted from all readings.
α-Synuclein solution at a concentration of 25 μM was incubated at 37° C. with continuous shaking for 5 days, leading to fibril formation, which was monitored by Th-T fluorescence at regular time intervals. α-Synuclein was incubated with each of Gn Rb1, salvianolic acid B and dihydromyricetin at molar ratios of 4:1, 2:1 and 1:1 (molar ratio Compound: α-synuclein) with a constant α-synuclein concentration of 25 μM.

[5] = after 5 days of incubation, read-out: inhibition of α-synuclein fibrillation (Th-T fluorescence)
[6] = 5 μM aged α-synuclein, all concentrations of compound, 48 hours, MTT

| inhibition of the seeding process ([2]; compound 10 μM) | inhibition at 50 µM ([2]; compound 50 μM) [%] | inhibition of α-synuclein fibrillation (Th-T fluorescence) ([4]; compound 25 μM, after 5 days of incubation) | inhibition at 50 µM [4, 5] [%] | inhibition at 100 µM ([4]; compound 100 μM, after 5 days of incubation, read-out: inhibition of α-synuclein fibrillation (Th-T fluorescence)) [%] | inhibition at 25 µM ([4]; compound 25 μM, after 5 days of incubation, read-out: inhibition of α-synuclein fibrillation (Th-T fluorescence)) [%] | inhibition of α-synuclein fibrillation (Th-T fluorescence) ([4]; compound 100 μM, after 5 days of incubation) | Compound | improvement of cell viability ([1]; highest concentration, molar ratio of 4:1, MTT) | TEM appearance of α-synuclein aged in the presence of compound [3] | improvement of viability of the cells ([1]; 1 μM aged α-synuclein, all used concentrations of compound, MTT) | cells surviving [1, 6] | increase in viability of the cells [1, 6] | TEM appearance of seeded α-synuclein with compound ([2]; after 6 h of incubation, compound 50 μM) | inhibition of the seeding process ([2]; compound 50 μM) | inhibition percentage of α-synuclein fibrillation (Th-T fluorescence) ([4]; 2 days of incubation, 37° C., all tested concentrations) | reduction of α-synuclein fibrillation (Th-T fluorescence) ([4]; after 5 days of incubation, all tested concentrations) | cells survived ([1]; α-synuclein aged with compound at molar ratios of 4:1 and 2:1, MTT) |
| --- | --- | --- | --- | --- | --- | --- | --- | --- | --- | --- | --- | --- | --- | --- | --- | --- | --- |
| showed an inhibitory effect | ~90 | failed to inhibit fibrillation | 40 | 80 | – | – | O=C1c2c(O)cc(O)cc2O[C@H](c2cc(O)c(O)c(O)c2)[C@H]1O [dihydromyricetin] | approximately 10% | thin, short rod-like fibrils, with a fragmented appearance | – | – | – | – | – | – | – | – |
| to a smaller extent | ~90 | – | ~80 | – | ~35 | completely abolished | O=C(/C=C/c1ccc(O)c2c1[C@H](C(=O)O[C@H](Cc1ccc(O)c(O)c1)C(=O)O)[C@@H](c1ccc(O)c(O)c1)O2)O[C@H](Cc1ccc(O)c(O)c1)C(=O)O [salvianolic acid B] | – | thin, short rod-like fibrils, with a fragmented appearance | – | – | – | – | – | – | – | approximately 95% |

| Compound | inhibition of the seeding process ([2]; compound 10 μM) | inhibition at 50 µM ([2]; compound 50 μM) [%] | inhibition of α-synuclein fibrillation (Th-T fluorescence) ([4]; compound 25 μM, after 5 days of incubation) | inhibition at 50 µM [4, 5] [%] | inhibition at 100 µM ([4]; compound 100 μM, after 5 days of incubation, read-out: inhibition of α-synuclein fibrillation (Th-T fluorescence)) [%] | inhibition at 25 µM ([4]; compound 25 μM, after 5 days of incubation, read-out: inhibition of α-synuclein fibrillation (Th-T fluorescence)) [%] | inhibition of α-synuclein fibrillation (Th-T fluorescence) ([4]; compound 100 μM, after 5 days of incubation) | improvement of cell viability ([1]; highest concentration, molar ratio of 4:1, MTT) | TEM appearance of α-synuclein aged in the presence of compound [3] | improvement of viability of the cells ([1]; 1 μM aged α-synuclein, all used concentrations of compound, MTT) | cells surviving [1, 6] | increase in viability of the cells [1, 6] | TEM appearance of seeded α-synuclein with compound ([2]; after 6 h of incubation, compound 50 μM) | inhibition of the seeding process ([2]; compound 50 μM) | inhibition percentage of α-synuclein fibrillation (Th-T fluorescence) ([4]; 2 days of incubation, 37° C., all tested concentrations) | reduction of α-synuclein fibrillation (Th-T fluorescence) ([4]; after 5 days of incubation, all tested concentrations) | cells survived ([1]; α-synuclein aged with compound at molar ratios of 4:1 and 2:1, MTT) |
| --- | --- | --- | --- | --- | --- | --- | --- | --- | --- | --- | --- | --- | --- | --- | --- | --- | --- |
| CC(C)=CCC[C@](C)(O[C@@H]1O[C@H](CO[C@@H]2O[C@H](CO)[C@@H](O)[C@H](O)[C@H]2O)[C@@H](O)[C@H](O)[C@H]1O)[C@H]1CC[C@]2(C)[C@@H]1[C@H](O)C[C@@H]1[C@@]3(C)CC[C@H](O[C@@H]4O[C@H](CO)[C@@H](O)[C@H](O)[C@H]4O[C@@H]4O[C@H](CO)[C@@H](O)[C@H](O)[C@H]4O)C(C)(C)[C@@H]3CC[C@]12C [Gn Rb1, ginsenoside Rb1] | approximately 60% | – | – | – | – | – | – | – | thin, short rod-like fibrils, with a fragmented appearance | approximately 30% | approximately 80% | approximately 30% | mostly globular forms of α-synuclein | approximately 90% | approximately 90% | approximately 80% | – |
